Earlier results as cited in paper PMC12694011, “Update and ADMET Profile of the Latin American Natural Product Database: LANaPDB” (Molecular Informatics, 2025).

test system: hERG channel; conditions: not given

Compound | hERG channel blocking (in words)
Fc1ccc(C(c2ccc(F)cc2)N2CCN(C/C=C/c3ccccc3)CC2)cc1 [flunarizine] | potent hERG channel blockers
O=c1[nH]c2ccccc2n1C1CCN(CCCC(c2ccc(F)cc2)c2ccc(F)cc2)CC1 [pimozide] | potent hERG channel blockers
OCCN1CCN(CCCN2c3ccccc3Sc3ccc(Cl)cc32)CC1 [perphenazine] | potent hERG channel blockers

test system: not given; design: method as in PMID 19947605; conditions: amphoteric drugs

paracellular transport (in words) | Compound
undergo extensive paracellular transport | CN1C(C(=O)Nc2ccccn2)=C(O)c2ccccc2S1(=O)=O [piroxicam]
undergo extensive paracellular transport | CC1(C)S[C@@H]2[C@H](/N=C/N3CCCCCC3)C(=O)N2[C@H]1C(=O)O [amdinocillin]
undergo extensive paracellular transport | Nc1nc(O)c2ncn(COC(CO)CO)c2n1 [ganciclovir]
undergo extensive paracellular transport | N[C@@H]1[C@H]2CN(c3nc4c(cc3F)c(=O)c(C(=O)O)cn4-c3ccc(F)cc3F)C[C@@H]12 [trovafloxacin]
